Assay results as given in US20120245344A1 (NIPPON CHEMIPHAR CO., LTD., priority 2009, published 2012).
“Also recorded” adds a separate entry of the source.

Key:
human GPR119 = molecular target: T1, human GPR119 (Homo sapiens, UniProt Q8TDV5); experiment: Measurement of intracellular cAMP in stable cell line expressing human GPR119 (GPR119 agonist effect); type: cell-based; conditions: for EC50: increase of intracellular cAMP, Flp-in T-Rex-293 cells expressing human GPR119, 37° C. for 30 minutes
T1 construct: expressed in transfected cells; host or cells: Flp-in T-Rex-293 cells (Invitrogen #R78007), plasmid pcDNA5/FRT/TO, expression induced with tetracycline
T1 sequence (Q8TDV5 1-335): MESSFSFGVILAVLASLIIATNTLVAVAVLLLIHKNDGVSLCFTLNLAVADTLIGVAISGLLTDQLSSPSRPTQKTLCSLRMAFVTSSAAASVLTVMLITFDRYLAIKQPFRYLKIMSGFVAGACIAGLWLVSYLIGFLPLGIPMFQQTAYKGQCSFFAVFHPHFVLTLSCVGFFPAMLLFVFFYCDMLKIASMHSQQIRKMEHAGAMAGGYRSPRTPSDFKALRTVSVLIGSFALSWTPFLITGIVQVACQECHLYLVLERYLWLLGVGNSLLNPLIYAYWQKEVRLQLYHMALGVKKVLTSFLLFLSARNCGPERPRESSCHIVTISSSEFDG
Text: The GPR119 agonist effect is studied by measuring the effect of an analyte on increase of intracellular amount of cAMP in human GPR119 introduced cells. The testing method is described below.
Human GPR119 gene (NM 178471) is purchased from ATCC (ATCC No. 10807349), and is amplyfied according to PCR to form BamHI site at 5′ side and Apa I site at 3′ side. The primers are […] (sequence No. 1) and […] (sequence No. 2). The PCR conditions are described below.
The double-stranded DNA is thermally denatured using a DNA polymerase (KOD-Plus-Ver. 2; TOYOBO #KOD-211) at 98° C. for 10 seconds in one cycle. The denatured single-stranded DNA is annealed with the primers at 55° C. for 30 seconds. The DNA is subjected to an extension reaction at 68° C. for 1 minute and 15 seconds. The above-mentioned steps are repeated in 35 cycles. The PCR product is inserted into pcDNA5/FRT/TO (Invitrogen #V6520-20) plasmid. Flp-in T-Rex-293 cells (Invitorogen #R78007) are transfected with the obtained plasmid. The method of transfection is conducted in accordance with the protocol of the product.
(§1) The stable cell line expressing human GPR119 prepared in the above-mentioned method is plated on a 96-well plate at the concentration of 2,500 cells/well using Dulbecco's Modified Eagle Medium (DMEM) containing 10% fetal bovine serum (FBS). Twenty-four hours after plating, tetracyclin (Invitrogen #Q10019) is added at the final concentration of 20 ng/mL to induce hGPR119 gene expression. Twenty-four hours after, the medium is removed, and the cells are stimulated with an assay buffer (0.5 mM IBMX PBS (−)) containing the test compound at 37° C. for 30 minutes. The amount of the intracellular cAMP is measured using a commercially available kit (HitHunter™ cAMP XS+Assay: GE Healthcare #90007503) and a reader (FLUOstar Optima: BMG LABTECH). The test compound is dissolved in 100% DMSO, and added at the final concentration of 1%.
Human GPR119 gene (NM 178471) was purchased from ATCC (ATCC No. 10807349), and is amplyfied according to PCR to form BamHI site at 5′ side and Apa I site at 3′ side. The primers were […] (sequence No. 1) and […] (sequence No. 2). The PCR conditions are described below. The double-stranded DNA was thermally denatured using a DNA polymerase (KOD-Plus-Ver. 2; TOYOBO #KOD-211) at 98° C. for 10 seconds in one cycle. The denatured single-stranded DNA was annealed with the primers at 55° C. for 30 seconds. The DNA was subjected to an extension reaction at 68° C. for 1 minute and 15 seconds. The above-mentioned steps were repeated in 35 cycles. The PCR product was inserted into pcDNA5/FRT/TO (Invitrogen #V6520-20) plasmid. Flp-in T-Rex-293 cells (Invitorogen #R78007) were transfected with the obtained plasmid. The method of transfection was conducted in accordance with the protocol of the product.
as §1, with “method was” for “method is”, “#Q10019) was” for “#Q10019) is”, “medium was” for “medium is”, “cells were” for “cells are”, “cAMP was” for “cAMP is”, “compound was” for “compound is”
The examination was performed by the method similar to Example 87 Pharmacological experiment 1-(1), -(2).

[1] = test system: glycemic excursions after glucose administration in normal mice; experiment: Oral glucose tolerance test in normal mice; type: in vivo, mice (male ICR); conditions: for Inhibition rate (%): 30 min before glucose 3 g/kg, area under the glycemic excursion curve 0-120 min versus vehicle
Protocol: In this experiment, the inhibitory effect of an analyte on glycemic excursions is examined after glucose administration in normal mice. The test methods are described below.
(§2) Male 9-week-old ICR mice, habituated to the experimental environment for two weeks, are fasted for 18 hours and used to this experiment. Mice are orally administered the analyte or vehicle (polyethylene glycol 400:ethanol:Tween 80=8:1:1). After 30 minutes, they were orally given glucose at the dose of 3 g/kg.
Blood was collected at just before the analyte or vehicle administration (−30 minutes), immediately before glucose challenge (0 minute), 20 minutes, 40 minutes, 60 minutes, and 120 minutes after glucose ingestion to determine blood glucose levels.
Inhibition rate (%) of the analyte versus vehicle in areas under the glycemic excursion curve between 0 and 120 min after glucose challenge is determined.
In this experiment, we examined the inhibitory effect of test compound on glycemic excursions after glucose administration in normal mice. The test methods are shown as follows.
as §2, with “were” for “are”, “test compound” for “analyte”, “400:ethanol:Tween80=8:1:1), and after” for “400:ethanol:Tween 80=8:1:1). After”
Blood was collected at just before the test compound or vehicle administration (−30 min), immediately before glucose challenge (0 min), 20 min, 40 min, 60 min and 120 min after glucose ingestion and then blood glucose levels were determined.
Inhibition rate (%) of the test compound versus vehicle in areas under the glycemic excursion curve between 0 and 120 min after glucose challenge was determined.
Except for the dose of test compounds made 1 mg/kg, the examination was performed by the method similar to Example 89 oral glucose tolerance test in normal mice.

[2] = 3 mg/kg, statement in words on Table 14
[3] = 1 mg/kg, statement in words on Table 15

With `CC(C)(C)OC(=O)N1CCC(c2ccc(Cn3ccc4cc(S(C)(=O)=O)ccc43)nc2)CC1` [Example 1, tert-Butyl 4-[2-(5-methanesulfonylindol-1-ylmethyl)pyridin-5-yl]piperidine-1-carboxylate] the EC50 (human GPR119) was 0.0212 µM, the “Inhibition rate (%)” value ([1]; 3 mg/kg oral) was 37.9% and the “inhibitory effect on glycemic excursions (in words)” value (from here on “inhibitory effect”) [1, 2] was “excellent inhibitory effect on glycemic excursions; also recorded: excellent inhibitory effect of glycemic excursions”.

For `CC(C)OC(=O)N1CCC(c2ccc(Cn3ccc4cc(-n5cnnn5)cc(F)c43)nc2)CC1` [Example 54, Isopropyl 4-[2-[7-fluoro-5-(tetrazol-1-yl)indol-1-ylmethyl]pyridin-5-yl]piperidine-1-carboxylate], the EC50 (human GPR119) was 0.0096 µM, the “Inhibition rate (%)” value ([1]; 1 mg/kg oral) was 36.0% and the “inhibitory effect” value [1, 3] was “excellent inhibitory effect on glycemic excursions; also recorded: excellent inhibitory effect of glycemic excursions”.

With `CC(C)(C)OC(=O)N1CCC(c2ccc(Cn3ccc4cc(S(C)(=O)=O)c(F)cc43)nc2)CC1` [Example 24, tert-Butyl 4-[2-(6-fluoro-5-methanesulfonylindol-1-ylmethyl)pyridin-5-yl]piperidine-1-carboxylate] the EC50 (human GPR119) was 0.019 µM, the “Inhibition rate (%)” value ([1]; 1 mg/kg oral) was 37.9% and the “inhibitory effect” value [1, 3] was “excellent inhibitory effect on glycemic excursions; also recorded: excellent inhibitory effect of glycemic excursions”.

Work on `CC(C)(C)OC(=O)N1CCC(c2ccc(C(=O)N3CCc4cc(S(C)(=O)=O)ccc43)nc2)CC1` [Example 8, tert-Butyl 4-[2-(5-methanesulfonylindoline-1-carbonyl)pyridin-5-yl]piperidine-1-carboxylate] yielded a melting point of 202 to 205 °C.

`CC(C)(C)OC(=O)N1CCC(c2ccc(COc3ccc4c(c3)C=CS4(=O)=O)nc2)CC1` [Example 10, tert-Butyl 4-[2-(1,1-dioxo-1H-benzo[b]thiophen-5-yloxymethyl)pyridin-5-yl]piperidine-1-carboxylate] showed an EC50 (human GPR119) of 0.353 µM and a melting point of 154 to 157 °C.

For `CC(C)(C)OC(=O)N1CCC(c2ccc(CN3CCc4cc(S(C)(=O)=O)ccc43)nc2)CC1` [Example 2], the EC50 (human GPR119) was 0.0205 µM, the “GPR119 agonist effect (in words)” value (human GPR119; statement in words on Tables 10 to 13) was “excellent GPR119 agonist effect” and the “Inhibition rate (%)” value ([1]; 3 mg/kg oral) was 33.7%. For the same compound, the “inhibitory effect” value [1, 2] was “excellent inhibitory effect on glycemic excursions; also recorded: excellent inhibitory effect of glycemic excursions”.

With `CCc1cnc(N2CCC(c3ccc(Cn4ccc5cc(S(C)(=O)=O)ccc54)nc3)CC2)nc1` [Example 30, 5-Ethyl-2-[4-[2-(5-methanesulfonylindol-1-ylmethyl)pyridin-5-yl]piperidin-1-yl]pyrimidine] the EC50 (human GPR119) was 0.0117 µM.

`CC(C)(C)OC(=O)N1CCCC(c2ccc(Cn3ccc4cc(S(C)(=O)=O)ccc43)nc2)CC1` (stereo not drawn) [Example 51] gave an EC50 (human GPR119) of 0.115 µM.
